Entries after “also recorded” stand apart in the source; their conditions may differ. Read-outs that look alike come from different tables or passages of the source.
What was measured:
[1] = target: T1, RhlI (Pseudomonas aeruginosa, UniProt P54291); conditions: N-butyryl L-homoserine lactone even at 1 mM; ref 21 (Parsek et al.); cited from earlier work
[2] = target: T1, RhlI; assay: RhlI enzymatic assay; format: biochemical; conditions: for effect on RhlI activity (inhibition / activation): initial rate with increasing concentrations of compound
[3] = target: T1, RhlI; assay: Inhibition of RhlI by inert alkyl-ACP / alkyl-CoA substrate analogs; format: biochemical; conditions: for effect of preincubation of RhlI with inhibitor on % inhibition or IC50: inhibition neither slow-binding nor time-dependent; for inhibition mode: substrate-velocity measurements at different alkyl-ACP concentrations
[4] = target: tag-free RhlI (Pseudomonas aeruginosa, UniProt P54291); assay: Km and IC50 with tag-free RhlI; format: biochemical
[5] = target: T1, RhlI; assay: Substrate kinetics of acyl-ACPs with RhlI; format: biochemical; conditions: acyl-ACP substrate with RhlI
[6] = inert substrate analog with RhlI

tag-free RhlI, sequence (P54291 whole entry): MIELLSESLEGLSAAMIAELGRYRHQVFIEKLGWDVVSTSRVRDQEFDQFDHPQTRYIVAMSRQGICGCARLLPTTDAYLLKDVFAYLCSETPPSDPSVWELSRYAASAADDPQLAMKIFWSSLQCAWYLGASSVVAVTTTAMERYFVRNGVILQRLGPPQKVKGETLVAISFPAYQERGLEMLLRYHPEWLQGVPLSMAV
T1 sequence (P54291 whole entry): as above

## CSC[C@H]1O[C@@H](n2cnc3c(N)ncnc32)[C@H](O)[C@@H]1O [MTA]
[1]
  inhibition of RhlI: weak inhibitors

## CCCC(=O)N[C@H]1CCOC1=O [compound 1, N-butyryl-L-homoserine lactone]
[1]
  inhibition of RhlI: no inhibition
[2]
  effect on RhlI activity (inhibition / activation): did not inhibit

## CCCC(=O)N[C@@H]1CCOC1=O [compound 5, C4-D-HSL]
[2]
  IC50: 688 ± 91 µM
  effect on RhlI activity (inhibition / activation): decreased the rate

## CCCC(=O)N[C@H]1CCSC1=O [compound 8, C4-L-HCTL]
[2]
  effect on RhlI activity (inhibition / activation): failed to inhibit; also recorded: did not inhibit

## O=C(CCCc1ccccc1)N[C@@H]1CCOC1=O [compound 31, 4-phenylbutanoyl-D-HSL]
[2]
  IC50: 20 ± 10 µM

## CCCC(=O)CC(=O)N[C@@H]1CCOC1=O [compound 34, 3-oxoC6-D-HSL]
[2]
  EC50: 224 ± 55 µM

## CCCCCC(=O)CC(=O)N[C@@H]1CCOC1=O [compound 35, 3-oxoC8-D-HSL]
[2]
  IC50: 282 ± 34 µM

## CCCCCCCCCCCC(=O)N[C@H]1CCSC1=O [compound 46, C12-L-HCTL]
[2]
  IC50: 387 ± 89 µM

## CCCCCCCCCC(=O)CC(=O)N[C@H]1CCSC1=O [compound 55, 3-oxoC12-L-HCTL]
[2]
  IC50: 621 ± 50 µM

## CCCCCCCCCCCC(=O)N[C@@H]1CCSC1=O [compound 60, C12-D-homocysteine thiolactone]
[2]
  IC50: 11 ± 1 µM
[2]; IC50 of 60 versus IC50 of 46
  fold lower IC50 than L-thiolactone counterpart compound 46: about 34 fold

## CCCC(=O)CC(=O)N[C@@H]1CCSC1=O [compound 61, 3-oxoC6-D-HCTL]
[2]
  EC50: 1510 ± 110 µM
  effect on RhlI activity (inhibition / activation): activated

## CCCCCC(=O)CC(=O)N[C@@H]1CCSC1=O [compound 62, 3-oxoC8-D-HCTL]
[2]
  EC50: 855 ± 74 µM
  effect on RhlI activity (inhibition / activation): activated

## CCCCCCCC(=O)CC(=O)N[C@@H]1CCSC1=O [compound 63, 3-oxoC10-D-HCTL]
[2]
  EC50: 57 ± 23 µM
  effect on RhlI activity (inhibition / activation): activated

## CCCCCCCCCC(=O)CC(=O)N[C@@H]1CCSC1=O [compound 64, 3-oxoC12-D-HCTL]
[2]
  IC50: 127 ± 70 µM
  effect on RhlI activity (inhibition / activation): inhibited

## N[C@H]1CCOC1=O [compound 71, L-HSL]
[2]
  effect on RhlI activity (inhibition / activation): None of these compounds or combinations had any effect on RhlI activity

## N[C@@H]1CCOC1=O [compound 72, D-HSL]
[2]
  effect on RhlI activity (inhibition / activation): None of these compounds or combinations had any effect on RhlI activity

## N[C@H]1CCSC1=O [compound 73, L-HCTL]
[2]
  effect on RhlI activity (inhibition / activation): None of these compounds or combinations had any effect on RhlI activity

## N[C@@H]1CCSC1=O [compound 74, D-HCTL]
[2]
  effect on RhlI activity (inhibition / activation): None of these compounds or combinations had any effect on RhlI activity

## CCCC(=O)O [compound 75, butyric acid]
[2]
  effect on RhlI activity (inhibition / activation): None of these compounds or combinations had any effect on RhlI activity

## CCCCCC(=O)O [compound 76, hexanoic acid]
[2]
  effect on RhlI activity (inhibition / activation): None of these compounds or combinations had any effect on RhlI activity

## CCCCCCCCCC(=O)O [compound 78, decanoic acid]
[2]
  effect on RhlI activity (inhibition / activation): None of these compounds or combinations had any effect on RhlI activity

## CCCCCCCCCCCC(=O)O [compound 79, dodecanoic acid]
[2]
  effect on RhlI activity (inhibition / activation): None of these compounds or combinations had any effect on RhlI activity

## CCCCSCCNC(=O)CCNC(=O)[C@H](O)C(C)(C)COP(=O)(O)OP(=O)(O)OC[C@H]1O[C@@H](n2cnc3c(N)ncnc32)[C@H](O)[C@@H]1OP(=O)(O)O [compound 89, butyl-CoA]
[3]; up to 1 mM
  inhibition of RhlI: not inhibiting

## CCCCCCSCCNC(=O)CCNC(=O)[C@H](O)C(C)(C)COP(=O)(O)OP(=O)(O)OC[C@H]1O[C@@H](n2cnc3c(N)ncnc32)[C@H](O)[C@@H]1OP(=O)(O)O [compound 90, hexyl-CoA]
[3]
  IC50: 70 ± 10 µM

## CCCCCCCCSCCNC(=O)CCNC(=O)[C@H](O)C(C)(C)COP(=O)(O)OP(=O)(O)OC[C@H]1O[C@@H](n2cnc3c(N)ncnc32)[C@H](O)[C@@H]1OP(=O)(O)O [compound 91, octyl-CoA]
[3]
  IC50: 5.1 ± 0.8 µM

## butyl-ACP [compound 85]
[3]; [6]
  IC50: 9.9 ± 4 µM
  Ki: 15.9 ± 0.9 µM
[3]
  effect of preincubation of RhlI with inhibitor on % inhibition or IC50: did not significantly alter
  inhibition mode: noncompetitive
[4]
  IC50 with untagged RhlI compared with MBP-tagged enzyme: almost identical

## butyryl-ACP [compound 80]
[5]
  Km: 7.3 ± 2.1 µM
  kcat: 0.0433 ± 0.005 s⁻¹
[5]; listed as C4-ACP
  Km: 7 µM
[4]
  Km with untagged RhlI compared with MBP-tagged enzyme: almost identical

## decanoyl-ACP [compound 83]
[5]
  Km: 0.14 ± 0.04 µM
  kcat: 0.00633 ± 0.00017 s⁻¹

## decyl-ACP [compound 88]
[3]; [6]
  IC50: 0.1 ± 0.04 µM
  Ki: 4.8 ± 0.3 µM
[3]
  inhibition mode: noncompetitive

## dodecanoyl-ACP [compound 84]
[5]
  Km: 0.26 ± 0.03 µM
  kcat: 0.01 ± 0.00017 s⁻¹
[5]; listed as C12-ACP
  Km: ~0.2 µM

## hexanoyl-ACP [compound 81]
[5]
  Km: 1.2 ± 0.2 µM
  kcat: 0.0143 ± 0.00033 s⁻¹

## hexyl-ACP [compound 86]
[3]; [6]
  IC50: 0.7 ± 0.4 µM
  Ki: 10.6 ± 1.1 µM
[3]
  inhibition mode: noncompetitive

## holo-ACP: holo acyl carrier protein, product of the RhlI reaction
[1]
  inhibition of RhlI: weak inhibitors

## octanoyl-ACP [compound 82]
[5]
  Km: 0.4 ± 0.06 µM
  kcat: 0.01 ± 0.00033 s⁻¹
[4]
  Km with untagged RhlI compared with MBP-tagged enzyme: almost identical

## octyl-ACP [compound 87]
[3]; [6]
  IC50: 0.06 ± 0.02 µM
  Ki: 6.5 ± 0.7 µM
[3]
  effect of preincubation of RhlI with inhibitor on % inhibition or IC50: did not significantly alter
  inhibition mode: noncompetitive
[4]
  IC50 with untagged RhlI compared with MBP-tagged enzyme: almost identical
